Source: patent US20250215039A1, “NUCLEOSIDES FOR TREATING CANCER” (PRIMEFOUR THERAPEUTICS, INC., priority 2022, published 2025)
Read-outs that look alike come from different tables or passages of the source.

Test system: cancer cell lines
Assay: Cancer cell proliferation activity (CellTiterGlo, 72 h)
Type: cell-based
Settings: 72 h, 72 h, read-out: IC50 cell proliferation
Summary of the method: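 Cells seeded overnight at 37 °C, then dosed with compound at 0.1% final DMSO and incubated 72 h at 37 °C (5% or 10% CO2 by medium).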

## Nc1nc(F)nc2c1ncn2[C@@H]1O[C@H](CO)[C@@H](O)[C@H]1O [compound 184, (2R,3R,4S,5R)-2-(6-amino-2-fluoro-9H-purin-9-yl)-5-(hydroxymethyl)tetrahydrofuran-3,4-diol]
5637 (bladder)
  IC50: 190 nM
CLS439 (bladder)
  IC50: 60 nM
HS729 (muscle)
  IC50: 100 nM
J82 (bladder)
  IC50: 100 nM
JAR (placenta)
  IC50: 40 nM
MT3 (breast)
  IC50: 90 nM
PANCI (pancreas)
  IC50: 130 nM
PC3 (prostate)
  IC50: 40 nM
RD (muscle)
  IC50: 60 nM
T24 (bladder)
  IC50: 60 nM
Homo sapiens, 22Rv1, 72 h, 22RV1 (prostate)
  IC50: 220 nM
Homo sapiens, 786-0, 72 h, 786O (kidney)
  IC50: 50 nM
Homo sapiens, A204, 72 h, A204 (muscle)
  IC50: 20 nM
Homo sapiens, A549, 72 h, A549 (lung)
  IC50: 40 nM
Homo sapiens, A673, 72 h, A673 (bone)
  IC50: 270 nM
Homo sapiens, A2780, 72 h, A2780 (ovary)
  IC50: 150 nM
Homo sapiens, A-375, 72 h, A375 (skin)
  IC50: 40 nM
Homo sapiens, A-431, 72 h, A431 (skin)
  IC50: 40 nM
Homo sapiens, ACHN, ACHN (kidney)
  IC50: 20 nM
Homo sapiens, ASPC1, 72 h, ASPC1 (pancreas)
  IC50: 30 nM
Homo sapiens, BT-20, 72 h, BT20 (breast)
  IC50: 30 nM
Homo sapiens, BXPC-3, 72 h, BXPC3 (pancreas)
  IC50: 80 nM
Homo sapiens, C-33-A, C33A (endometrial)
  IC50: 50 nM
Homo sapiens, CAKI-1, 72 h, CAKI1 (kidney)
  IC50: 10 nM
Homo sapiens, COLO 205, 72 h, COLO205 (colon)
  IC50: 120 nM
Homo sapiens, COLO-678, 72 h, COLO678 (colon)
  IC50: 60 nM
Homo sapiens, Ca-Ski, CASKI (endometrial)
  IC50: 30 nM
Homo sapiens, Caco-2, 72 h, CACO2 (colon)
  IC50: 190 nM
Homo sapiens, Calu-6, 72 h, CALU6 (lung)
  IC50: 30 nM
Homo sapiens, DLD-1, 72 h, DLD1 (colon)
  IC50: 90 nM
Homo sapiens, DU-145, 72 h, DU145 (prostate)
  IC50: 20 nM
Homo sapiens, EFO-21, 72 h, EFO21 (ovary)
  IC50: 70 nM
Homo sapiens, EJ-28, 72 h, EJ28 (bladder)
  IC50: 30 nM
Homo sapiens, Granta-519, 72 h, GRANTA-519 (hematological)
  IC50: 110 nM
Homo sapiens, HCT-15, 72 h, HCT15 (colon)
  IC50: 40 nM
Homo sapiens, HCT-116, 72 h, HCT116 (colon)
  IC50: 140 nM
Homo sapiens, HEK293, 72 h, HEK293 (kidney)
  IC50: 50 nM
Homo sapiens, HL-60, 72 h, HL-60 (hematological)
  IC50: 40 nM
Homo sapiens, HT-29, 72 h, HT29 (colon)
  IC50: 70 nM
Homo sapiens, HT-1080, 72 h, HT1080 (connective tissue)
  IC50: 70 nM
Homo sapiens, HeLa, HELA (endometrial)
  IC50: 70 nM
Homo sapiens, HepG2, 72 h, HEPG2 (liver)
  IC50: 40 nM
Homo sapiens, Hs-578T, HS578T (breast)
  IC50: 80 nM
Homo sapiens, IGROV-1, 72 h, IGROV1 (ovary)
  IC50: 50 nM
Homo sapiens, IMR-90, 72 h, IMR90 (lung)
  IC50: 30 nM
Homo sapiens, JEG-3, 72 h, JEG3 (placenta)
  IC50: 40 nM
Homo sapiens, JIMT-1, 72 h, JIMT1 (breast)
  IC50: 20 nM
Homo sapiens, K562, 72 h, K-562 (hematological)
  IC50: 120 nM
Homo sapiens, Kasumi 1, 72 h, KASUMI-1 (hematological)
  IC50: 10 nM
Homo sapiens, L-363, 72 h, L-363 (hematological)
  IC50: 20 nM
Homo sapiens, LoVo, LOVO (colon)
  IC50: 20 nM
Homo sapiens, MCF7, 72 h, MCF7 (breast)
  IC50: 100 nM
Homo sapiens, MDA-MB-231, 72 h, MDAMB231 (breast)
  IC50: 40 nM
Homo sapiens, MDA-MB-435, 72 h, MDAMB435 (skin)
  IC50: 50 nM
Homo sapiens, MDA-MB-436, 72 h, MDAMB436 (breast)
  IC50: 40 nM
Homo sapiens, MDA-MB-468, 72 h, MDAMB468 (breast)
  IC50: 80 nM
Homo sapiens, MG-63, 72 h, MG63 (bone)
  IC50: 390 nM
Homo sapiens, MHH-ES-1, 72 h, MHHES1 (bone)
  IC50: 70 nM
Homo sapiens, MIA PaCa-2, 72 h, MIAPACA2 (pancreas)
  IC50: 130 nM
Homo sapiens, MINO, MINO (hematological)
  IC50: 10 nM
Homo sapiens, MV4-11, 72 h, MV4-11 (hematological)
  IC50: 20 nM
Homo sapiens, NCI-H23, 72 h, NCI-H23 (lung)
  IC50: 40 nM
Homo sapiens, NCI-H82, 72 h, NCIH82 (lung)
  IC50: 60 nM
Homo sapiens, NCI-H292, 72 h, NCIH292 (lung)
  IC50: 90 nM
Homo sapiens, NCI-H460, 72 h, NCIH460 (lung)
  IC50: 40 nM
Homo sapiens, OVCAR-3, 72 h, OVCAR3 (ovary)
  IC50: 40 nM
Homo sapiens, OVCAR-4, 72 h, OVCAR4 (ovary)
  IC50: 50 nM
Homo sapiens, PLC-PRF-5, 72 h, PLCPRF5 (liver)
  IC50: 230 nM
Homo sapiens, Panc1005, 72 h, PANC1005 (pancreas)
  IC50: 50 nM
Homo sapiens, Ramos, RAMOS (hematological)
  IC50: 140 nM
Homo sapiens, SAOS-2, 72 h, SAOS2 (bone)
  IC50: 50 nM
Homo sapiens, SF-268, 72 h, SF268 (brain)
  IC50: 160 nM
Homo sapiens, SF-295, 72 h, SF295 (brain)
  IC50: 160 nM
Homo sapiens, SK-BR-3, 72 h, SKBR3 (breast)
  IC50: 10 nM
Homo sapiens, SK-HEP1, 72 h, SKHEP1 (liver)
  IC50: 20 nM
Homo sapiens, SK-LMS-1, 72 h, SKLMS1 (uterus)
  IC50: 40 nM
Homo sapiens, SK-MEL-5, 72 h, SKMEL5 (skin; SKMELS [sic] in Table 9E)
  IC50: 50 nM
Homo sapiens, SK-MEL-28, 72 h, SKMEL28 (skin)
  IC50: 100 nM
Homo sapiens, SK-N-AS, SKNAS (brain)
  IC50: 30 nM
Homo sapiens, SK-N-SH, SKNSH (brain)
  IC50: 30 nM
Homo sapiens, SK-OV-3, 72 h, SKOV3 (ovary)
  IC50: 50 nM
Homo sapiens, SNB-75, 72 h, SNB75 (brain)
  IC50: 100 nM
Homo sapiens, SU-DHL10, 72 h, SU-DHL-10 (hematological)
  IC50: 180 nM
Homo sapiens, SU-DHL-6, 72 h, SU-DHL-6 (hematological)
  IC50: 10 nM
Homo sapiens, SW-620, 72 h, SW620 (colon)
  IC50: 30 nM
Homo sapiens, TE-671, 72 h, TE671 (muscle)
  IC50: 150 nM
Homo sapiens, THP-1, 72 h, THP-1 (hematological)
  IC50: 20 nM
Homo sapiens, U2OS, U20S (bone; U2OS in Table 9E)
  IC50: 40 nM
Homo sapiens, U-87 MG, U87MG (brain)
  IC50: 30 nM
Homo sapiens, UMUC3, 72 h, UMUC3 (bladder)
  IC50: 30 nM
Homo sapiens, UO-31, 72 h, UO31 (kidney)
  IC50: 50 nM
Homo sapiens, WSU-NHL, WSU-NHL (hematological)
  IC50: 30 nM
NCI-H358M, NCIH358M (lung)
  IC50: 70 nM
PBMC, PBMC (hematological)
  IC50: 180 nM
RD-ES, RDES (bone)
  IC50: 20 nM
